Assay results reported in patent publication US20090197859A1 (Pfizer Inc., priority 2008, published 2009).

Legend:
[1] = biological target: T1, cloned human 5-HT6 receptor (Homo sapiens, UniProt P50406); assay: 5-HT6 Receptor Binding Assay ([3H]-LSD radioligand, SPA); details: for inhibition at 1 µM: read-out: 5HT6 % inh @ 1 uM
T1 construct: host or cells: HeLa cells, G-418 selection, membrane preparation
Experimental: 5-HT6 Receptor Binding Assay
Hela cells containing the cloned human 5-HT6 receptor were acquired from Dr. David R. Sibley's laboratory in National Institute of Health (see Sibley, D. R., J. Neurochemistry, 66, 47-56, 1996). Cells were grown in high glucose Dulbecco's modified Eagle's medium, supplemented with L-glutamine, 0.5% sodium pyruvate, 0.3% penicillin-streptomycin, 0.025% G-418 and 5% Gibco fetal bovine serum and then were harvested, when confluent, in cold phosphate buffered saline.
Harvested intact cells were washed once in cold phosphate-buffered saline. The cells were pelleted and resuspended in 100 ml of cold 50 mM Tris, 5 mM EDTA and 5 mM EGTA, pH 7.4. Homogenization was with a Vir Tishear generator, 4 cycles for 30 seconds each at setting 50. The homogenized cells were centrifuged at […] for 10 minutes and the supernatant was removed. The pellet was resuspended in 100 ml of the above buffer and rehomogenized for 2 cycles. The rehomogenized cells were then centrifuged at […] for 10 minutes and the supernatant was removed. The combined supernatant (200 ml) was centrifuged at 23,000 RPM (80,000×g) for 1 hour in a Beckman Rotor (42.1 Ti). The membrane pellet was resuspended in […] of assay buffer containing HEPES 20 mM, MgCl2 10 mM, NaCl 150 mM, EDTA 1 mM, pH 7.4 and stored frozen in aliqouts at −70° C.
The radioligand binding assay used [^3H]-lysergic acid diethylamide (LSD). The assay was carried out in Wallac 96-well sample plates by the addition of 11 μl of the test sample at the appropriate dilution (the assay employed 11 serial concentrations of samples run in duplicate), 11 μl of radioligand, and 178 μl of a washed mixture of WGA-coated SPA beads and membranes in binding buffer. The plates were shaken for about 5 minutes and then incubated at room temperature for 1 hour. The plates were then loaded into counting cassettes and counted in a Wallac MicroBeta Trilux scintillation counter.
Binding Constant Determination may be obtained by performing serial dilutions, e.g., eleven dilutions, of test compounds into assay plates using the PE/Cetus Pro/Pette pipetter. These dilutions are followed by radioligand and the bead-membrane mixture prepared as described above. After obtaining the specifically bound cpm, the data are fit to a one-site binding model using GraphPad Prism ver. 2.0. Estimated IC50 values are converted to Ki values using the Cheng-Prusoff equation (Cheng, Y. C. et al., Biochem. Pharmacol., 22, 3099-108, 1973).

T1 sequence (P50406 whole entry): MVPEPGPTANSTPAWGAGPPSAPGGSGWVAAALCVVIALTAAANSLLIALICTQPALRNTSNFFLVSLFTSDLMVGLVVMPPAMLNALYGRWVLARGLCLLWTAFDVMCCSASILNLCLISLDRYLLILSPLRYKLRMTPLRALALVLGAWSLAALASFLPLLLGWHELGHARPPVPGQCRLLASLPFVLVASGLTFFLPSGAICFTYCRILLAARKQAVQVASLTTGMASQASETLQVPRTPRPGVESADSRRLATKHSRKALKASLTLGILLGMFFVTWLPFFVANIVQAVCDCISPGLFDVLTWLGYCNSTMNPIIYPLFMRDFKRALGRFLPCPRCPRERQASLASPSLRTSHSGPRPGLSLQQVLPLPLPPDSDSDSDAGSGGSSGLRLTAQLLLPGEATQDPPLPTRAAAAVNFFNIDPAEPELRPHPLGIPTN

melting point	inhibition at 1 µM [1]	inhibition at 0.3 µM ([1]; 0.3 μM (stated in cell), read-out: 5HT6 % inh @ 0.3 μM)	Structure (SMILES)
188 to 188.7 °C	70%	–	Cc1ccccc1[C@H]1CCCCN1C(=O)c1cccc(N2CCN(C)CC2)n1 [Example 62, [6-(4-Methyl-piperazin-1-yl)-pyridin-2-yl]-((R)-2-o-tolyl-piperidin-1-yl)-methanone]
96.9 to 97.5 °C	99.4%	–	O=C(c1cccc(N2CCCNCC2)n1)N1CCC[C@H](Oc2cccc(F)c2)C1 [Example 38, (6-[1,4]Diazepan-1-yl-pyridin-2-yl)-[(S)-3-(3-fluoro-phenoxy)-piperidin-1-yl]-methanone]
107.9 to 109 °C	82%	–	O=C(c1cccc(N2CCCNCC2)n1)N1CCC[C@H](Oc2ccc(F)cc2)C1 [Example 39, (6-[1,4]Diazepan-1-yl-pyridin-2-yl)-[(S)-3-(4-fluoro-phenoxy)-piperidin-1-yl]-methanone]
138.5 to 139 °C	95.3%	–	Cc1cccc(C2CCCCN2C(=O)c2cccc(N3CCCNCC3)n2)c1 (centres unmarked) [Example 34, (6-[1,4]Diazepan-1-yl-pyridin-2-yl)-(2-m-tolyl-piperidin-1-yl)-methanone]
122.6 to 123.2 °C	104%	–	Cc1cccc(F)c1C1CCN(C(=O)c2cccc(C3CCN(C)C3)n2)CC1 (centres unmarked) [Example 111, [4-(2-Fluoro-6-methyl-phenyl)-piperidin-1-yl]-[6-(1-methyl-pyrrolidin-3-yl)-pyridin-2-yl]-methanone]
183.4 to 184 °C	94.5%	–	O=C(c1cccc(N2CCCNCC2)n1)N1CCCCC1c1ccccc1F (centres unmarked) [Example 31, (6-[1,4]Diazepan-1-yl-pyridin-2-yl)-[2-(2-fluoro-phenyl)-piperidin-1-yl]-methanone]
110 to 112 °C	98.9%	–	CN1CCCN(c2cccc(C(=O)N3CCC[C@H](Oc4cccc(Cl)c4)C3)n2)CC1 [Example 87, [(S)-3-(3-Chloro-phenoxy)-piperidin-1-yl]-[6-(4-methyl-[1,4]diazepan-1-yl)-pyridin-2-yl]-methanone]
111.7 to 112 °C	94%	–	CN1CCN(c2cccc(C(=O)N3CCCC[C@@H]3c3ccccc3F)n2)CC1 [Example 57, [(R)-2-(2-Fluoro-phenyl)-piperidin-1-yl]-[6-(4-methyl-piperazin-1-yl)-pyridin-2-yl]-methanone]
98 to 99 °C	89.4%	–	Cc1ccc(CN(C)C(=O)c2cccc(N3CCN(C)CC3)n2)cc1 [Example 90, 6-(4-Methyl-piperazin-1-yl)-pyridine-2-carboxylic acid methyl-(4-methyl-benzyl)-amide]
158 to 160 °C	86.1%	–	Cc1cccc(O[C@@H]2CCCN(C(=O)c3cccc(N4CCCNCC4)n3)C2)c1 [Example 48, (6-[1,4]Diazepan-1-yl-pyridin-2-yl)-((R)-3-m-tolyloxy-piperidin-1-yl)-methanone]
77 to 78 °C	74.9%	–	CN1CCN(c2cccc(C(=O)N(C)Cc3cccc(F)c3)n2)CC1 [Example 70, 6-(4-Methyl-piperazin-1-yl)-pyridine-2-carboxylic acid (3-fluoro-benzyl)-methyl-amide]
102 to 104 °C	89.9%	–	Cc1ccccc1O[C@@H]1CCN(C(=O)c2cccc(N3CCCNCC3)n2)C1 [Example 49, (6-[1,4]Diazepan-1-yl-pyridin-2-yl)-((R)-3-o-tolyloxy-pyrrolidin-1-yl)-methanone]
157.6 to 158.2 °C	94.7%	–	Cc1ccc(O[C@H]2CCCN(C(=O)c3cccc(N4CCCNCC4)n3)C2)cc1 [Example 41, (6-[1,4]Diazepan-1-yl-pyridin-2-yl)-((S)-3-p-tolyloxy-piperidin-1-yl)-methanone]
142 to 142.5 °C	96.3%	–	Cc1cccc([C@H]2CCCCN2C(=O)c2cccc(N3CCN(C)CC3)n2)c1 [Example 52, [6-(4-Methyl-piperazin-1-yl)-pyridin-2-yl]-((R)-2-m-tolyl-piperidin-1-yl)-methanone]
160.7 to 162.3 °C	–	92%	Cc1ccccc1C1=CCN(C(=O)c2cccc(N3CCN(C)CC3)n2)CC1 [Example 24, [6-(4-Methyl-piperazin-1-yl)-pyridin-2-yl]-(4-o-tolyl-3,6-dihydro-2H-pyridin-1-yl)-methanone]
102 to 103.2 °C	75.1%	–	O=C(c1cccc(N2CCNCC2)n1)N1CCCCC1c1ccc(F)cc1 (centres unmarked) [Example 29, [2-(4-Fluoro-phenyl)-piperidin-1-yl]-(6-piperazin-1-yl-pyridin-2-yl)-methanone]
118 to 120 °C	99.5%	–	Cc1cccc(O[C@H]2CCCN(C(=O)c3cccc(N4CCCN(C)CC4)n3)C2)c1 [Example 86, [6-(4-Methyl-[1,4]diazepan-1-yl)-pyridin-2-yl]-((S)-3-m-tolyloxy-piperidin-1-yl)-methanone]
82 to 84 °C	78.5%	–	Cc1cccc(O[C@@H]2CCN(C(=O)c3cccc(N4CCCN(C)CC4)n3)C2)c1 [Example 19, [6-(4-Methyl-[1,4]diazepan-1-yl)-pryidin-2-yl]-((R)-3-m-tolyloxy-pyrrolidin-1-yl)-methanone]
136.7 to 137.2 °C	77.4%	–	Cc1ccccc1[C@@H]1CCCCN1C(=O)c1cccc(N2CCN(C)CC2)n1 [Example 63, [6-(4-Methyl-piperazin-1-yl)-pyridin-2-yl]-((S)-2-o-tolyl-piperidin-1-yl)-methanone]
84 to 86 °C	97.3%	–	CN1CCN(c2cccc(C(=O)N3CCC[C@H](Oc4cccc(F)c4)C3)n2)CC1 [Example 75, [(S)-3-(3-Fluoro-phenoxy)-piperidin-1-yl]-[6-(4-methyl-piperazin-1-yl)-pyridin-2-yl]-methanone]
118 to 119 °C	88.9%	–	CN1CCN(c2cccc(C(=O)N3CCCC(c4ccccc4F)C3)n2)CC1 (centres unmarked) [Example 58, [3-(2-Fluoro-phenyl)-piperidin-1-yl]-[6-(4-methyl-piperazin-1-yl)-pyridin-2-yl]-methanone]
195.3 to 196.4 °C	90.2%	–	CN1CCN(c2cccc(S(=O)(=O)N3CCCCC3c3ccccc3F)n2)CC1 (centres unmarked) [Example 79, 1-{6-[2-(2-Fluoro-phenyl)-piperidine-1-sulfonyl]-pyridin-2-yl}-4-methyl-piperazine]
142 to 143 °C	86.7%	–	Cc1ccccc1[C@@H](C)N(C)C(=O)c1cccc(N2CCN(C)CC2)n1 [Example 61, 6-(4-Methyl-piperazin-1-yl)-pyridine-2-carboxylic acid methyl-((R)-1-o-tolyl-ethyl)-amide]
90 to 92 °C	97.7%	–	Cc1ccc(O[C@H]2CCN(C(=O)c3cccc(N4CCCNCC4)n3)C2)cc1 [Example 43, (6-[1,4]Diazepan-1-yl-pyridin-2-yl)-((S)-3-p-tolyloxy-pyrrolidin-1-yl)-methanone]
108 to 110 °C	76.2%	–	Cc1ccc(O[C@@H]2CCN(C(=O)c3cccc(N4CCCN(C)CC4)n3)C2)cc1 [Example 59, [6-(4-Methyl-[1,4]diazepan-1-yl)-pyridin-2-yl]-((R)-3-p-tolyloxy-pyrrolidin-1-yl)-methanone]
199.5 to 200.6 °C	83%	–	CN1CCN(c2cccc(C(=O)N(C)Cc3ccccc3C(F)(F)F)n2)CC1 [Example 92, 6-(4-Methyl-piperazin-1-yl)-pyridine-2-carboxylic acid methyl-(2-trifluoromethyl-benzyl)-amide]
141.6 to 142.9 °C	79.6%	–	CN1CC(c2cccc(C(=O)N3CCC(Oc4ccc(F)cc4)CC3)n2)C1 [Example 97, [4-(4-Fluoro-phenoxy)-piperidin-1-yl]-[6-(1-methyl-azetidin-3-yl)-pyridin-2-yl]-methanone]
126 to 128 °C	99.4%	–	Cc1cccc([C@@H](C)N(C)C(=O)c2cccc(N3CCN(C)CC3)n2)c1 [Example 93, 6-(4-Methyl-piperazin-1-yl)-pyridine-2-carboxylic acid methyl-((R)-1-m-tolyl-ethyl)-amide]
